Results reported in patent US12715781B2, “Water treatment and purification method” (priority 2019, dated 2026).

Columns and labels:
[1] = tested on: E. coli; assay: Agar well diffusion, zone of inhibition; format: cell-based; conditions: 8 mm wells, nanoparticles 100 μL (50 μg) per well, tetracycline 15 μg/wells, 24 hr at 37° C.
Protocol: (§1) For bacterial growth, a lawn of culture was prepared by spreading the […] of each test organism on nutrient agar plates. Plates were left standing for 10 minutes to let the culture get absorbed. Then 8 mm wells were punched into the nutrient agar plates for testing nanomaterial antimicrobial activity. Using a micropipette, 100 μL (50 μg) of the sample of nanoparticle suspension was poured onto each of five wells on all plates. After 24 hr incubation at 37° C.±2° C., the diameter of inhibition zone was measured.

[2] = tested on: S. aureus ATCC 25923; assay: Agar well diffusion, zone of inhibition; format: cell-based, Staphylococcus aureus; conditions: 8 mm wells, nanoparticles 100 μL (50 μg) per well, tetracycline 15 μg/wells, 24 hr at 37° C.
Protocol: as §1

## CN(C)[C@@H]1C(O)=C(C(N)=O)C(=O)[C@@]2(O)C(O)=C3C(=O)c4c(O)cccc4[C@@](C)(O)[C@H]3C[C@@H]12 [Tetracycline, tetracycline]
[1]
  Inhibitions zones diameters: 20 ± 0.2 mm
[2]
  Inhibitions zones diameters: 18 ± 0.2 mm
